Entries after “also recorded” stand apart in the source; their conditions may differ.
What was measured:
[1] = test system: human monocytes, T or B cells; settings: cited from earlier work
MMTV-PyMT tumors [2] = assay: Combination with PD-1 checkpoint blockade in MMTV-PyMT mice; format: in vivo, mouse; settings: TMP195 50 mg/kg IP daily plus 250 μg anti-PD-1
tumor macrophages = assay: New vs. pre-existing macrophage dextran experiment; format: in vivo, mouse; settings: 5 days of TMP195 vs vehicle
Experimental: MMTV-PyMT tumor-bearing mice were injected with 0.25 mg/mouse (10 mpk) low molecular weight (10,000 MW) Alexa555-labelled dextran (Life Technologies D34679) which is readily taken up by phagocytic cells. Mice were then treated for 5 consecutive days with DMSO or TMP195. Two hours before the mice were sacrificed they were injected with 0.25 mg/mouse of another low molecular weight (10,000 MW) dextran, this time labeled with Alexa594 (Life Technologies D22913)14. Tumors were collected as described above and flow cytometry was performed. […] Mice that received only one of the dextran conjugates were used as controls for flow cytometry.

MMTV-PyMT tumors [3] = assay: Single agent efficacy on tumor burden in autochthonous MMTV-PyMT mice; format: in vivo, mouse
[4] = test system: mouse MMTV-PyMT breast tumor cell lines; assay: In vitro cell death assay (CellTiter-Glo), mouse lines; format: cell-based; settings: 0, 0.1, 1, 10 μM, 48 hours
Experimental: The human breast cancer cell lines (BT20, MCF7, HCC202, T47D, MDA-MB-453 and MDA-MB-436) were obtained from ATCC. Prior to use, cell line authentication was performed by either STR profiling at Dana-Farber Cancer Institute or by Fluidigm based fingerprinting with a panel of SNPs at The Broad Institute. Cell lines were tested for mycoplasma with the MycoAlert PLUS Mycoplasma Detection Kit (Lonza LT07) according to manufacturer's instructions. Mouse breast tumor cell lines were established from 4 different MMTV-PyMT tumor bear mice. Mouse breast tumor cell line 7333 was implanted into wild-type littermates and once the tumor formed it was removed and used to generate the tumor cell line “MMTV”. All cells were plated at 1E4 cells/well in a 96 well plate. Cells were treated for 48 hours and CellTiter-Glo was used to assess cell viability.

MMTV-PyMT tumors [5] = test system: MMTV-PyMT tumors
Experimental: For all transgenic mouse experiments virgin female FVB/N transgenic mice carrying the polyoma middle T (PyMT) transgene under the control of the mammary tumor virus (MMTV) promoter were used. All mice were maintained within the Dana-Farber Cancer Center (DCFI) animal facility and all experiments involving animals were conducted in accordance with the GSK Policy on the Care, Welfare and Treatment of Laboratory Animals and were reviewed and approved by the DFCI Institutional Animal Care and Use Committee approved. MMTV-PyMT transgenic mice were obtained from The Jackson Laboratory (002374). Mice that were approximately 80 days old were enrolled into the study when their tumor burden was between 300-600 mm^3, unless otherwise noted. Although female mice have 10 mammary fat pads, tumors from mammary fat pad positions 5 and 10 were excluded from all experiments and analysis. Caliper measurements were used to calculate the tumor volume from each mammary tumor using [(Length×Width^2)/2]. The sum of the volume from each tumor on a mouse was combined to generate “total tumor burden”. At the indicated time points animals were euthanized in a CO2 chamber before performing a cardiac perfusion with normal saline. Lungs and tumors were then removed for analysis.
Tumors were extracted and fixed in 10% formalin overnight. Tumors were embedded in paraffin and sectioned at the Rodent Pathology Core at Harvard Medical School. Preceding immunohistochemical staining, tumor sections were exposed to two washes with Histo-Clear II (National Diagnostics, cat. #HS-202), two washes with 100% ethanol, and subsequent hydration with washes of 90%, 80%, 70%, and 50% ethanol. Antigen unmasking was achieved by heating sections in 10 mM sodium citrate buffer (pH 6.0). After cooling, sections were washed in dH20, incubated in 3% Hydrogen peroxide for 10 minutes at room temperature, washed in dH20 again, and then washed in 1×PBS. Antigen blocking was carried out by incubating sections in PBS buffer containing 0.5% Tween, 1% BSA plus 5% serum for 1 hour at room temperature. Sections were then stained in block buffer containing primary antibody (anti-mouse F4/80, clone BM8, BioLegend cat. #123101, 1:50; anti-mouse CD11b, clone EPR1344, ABCAM® cat. #ab133357, 1:50; anti-mouse cleaved caspase-3 (Asp175), Cell Signaling Technology cat. #9661S, 1:300; anti-mouse CD34, clone MEC14.7, BioLegend cat. #119301, 1:100; anti-mouse Ki-67, clone D3B5, BioLegend cat. #12202S, 1:400; CD40 Abcam (ab13545) 1:200); 1:200 Mac-2 (BioLegend cat. #125403, clone M3/38) overnight in a wet chamber at 4° C. in the dark. The following day, sections were washed three times in 1×PBS and stained with secondary biotinylated antibody in PBS block buffer for 1 hour at room temperature. Sections were washed three times with 1×PBS and Elite Vectastain ABC Kit (Vector Laboratories, PK-6100) was applied for 30 minutes per manufacturer's instructions at room temperature in the dark. Sections were washed with 1×PBS, developed with DAB reagent (Peroxidase Substrate Kit, Vector Laboratories, cat. #5K4100), and counterstained with hematoxylin. Sections were then exposed to two washes with dH20, one wash with 1×PBS, and subsequent washes of increasing ethanol concentration for dehydration followed by incubation in Histo-Clear II. Slides were mounted with VectaMount Permanent Mounting Medium (Vector Laboratories, H-5000) and No. 1 glass coverslips (Denville Scientific, cat. #M1100-02) and allowed to cure for 24 hours. Sections were viewed with an Olympus BX43 Trinocular Microscope. For all IHC quantitation ten randomly selected fields from at least 4 different tumors in each treatment group were used to quantitate the percent of tissue positive for each marker using ImageJ software^32. Images were converted to a greyscale red-green-blue (RGB) stack. Positive stain in the “blue” greyscale image was quantified at the appropriate threshold as % total image area positive for stain.

MMTV-PyMT tumors [6] = assay: Tumor cell proliferation and apoptosis (Ki67, cleaved Caspase 3 IHC, immunoblot); format: in vivo, mouse; settings: 5 days of TMP195
Experimental: Tumors were manually dissociated using a blade before being lysed in complete RIPA lysis buffer for 2 hours at 4° C. Complete RIPA is a combination of RIPA lysis buffer, a protease inhibitor, and Phenylmethylsulfonyl fluoride (PMSF). After incubation in RIPA, the lysates were centrifuged at 10,000 rcf for 10 minutes and the supernatant was collected for analysis. Protein concentration was measured using a Bicinchoninic acid (BCA) assay as per manufacturer's instructions. Equal protein concentrations were mixed into NuPAGE LDS sample buffer, beta mercaptoethanol (BME), and complete RIPA buffer before being heated for 10 mins at 90° C. to denature the protein. The gels were run on 15 wells 4-12% Bis-Tris Protein gels for 2 hours at 110 volts before being transferred onto a PVDF membrane. The blots were blocked in a 5% milk and PBST solution, and placed in primary antibody overnight. Blots were then incubated in secondary antibody for 1 hour before being developed with supersignal west PICO chemiluminescence substrate and FEMTO supersignal maximal sensitivity substrate. A Luminescent Image Analyzer LAS-4000 was used to develop blots. Primary antibodies purchased from Cell Signaling Technology were used: cleaved caspase 3 (D175), PARP (9542S) and Actin. Antibodies were diluted to a 1:1000 solution in 1% BSA, and sodium azide diluted to 1:500. […]

[7] = test system: MMTV-PyMT tumor transplants; assay: Orthotopic transplant of MMTV-PyMT tumor pieces into wild-type FVBN or athymic nude Foxn1nu mice; format: in vivo, mouse
Experimental: Two transplant experiments were performed where tumors were extracted from MMTV-PyMT mice and 50-100 mm^3 pieces were inserted into the 4th mammary fat pad of either wild-type FVBN mice or athymic nude Foxn1nu mice. Five days after implant mice were randomly placed into treatment groups and treated as indicated.

MMTV-PyMT tumors [8] = assay: Depletion experiments (anti-CD11b, anti-CSF1, anti-CD8, anti-CD4, anti-IFNγ); format: in vivo, mouse
Experimental: For CSF1 depletion, mice were injected IP with 1 mg of anti-CSF1 (BioXCell BE0204; clone 5A1) 1 day before treatment with vehicle or compound, and then with 0.5 mg every 5 days^3. For CD11b depletion mice were injected IP with 100 μg of anti-CD11b (clone M1/70; BioLegend 101231) one day before treatment with vehicle or compound, and then every other day.^34 For CD8 immune cell depletion, mice were injected IP with 1 mg anti-CD8 immunoglobulin (BioXCell BE0117; clone YTS169.4) or control IgG2b (BioXCell BE0090; clone LTF-2) on day 1 and then with 0.5 mg every 5 days for 2 week study. For 6-day experiment mice were dosed with: IgG1 (BioXcell BE0088; clone HRPN), α-CD8 (BioXcell BE0117; clone YTS169.4), α-CD4 (BioXcell BE0033-1; clone GK1.5) and α-INFγ (BioXcell BE0055; clone XMG1.2) with 1 mg on day 0 and 0.5 mg on day 4; except α-CD4 which was dosed at 400 μg on day 0 and 400 μg on day 4.

[9] = 50 mg/kg TMP195 IP daily, 5 days vs DMSO

Compound: CC(C)(CNC(=O)c1cccc(-c2noc(C(F)(F)F)n2)c1)c1coc(-c2ccccc2)n1 [TMP195, N-(2-methyl-2-(2-phenyloxazol-4-yl)propyl)-3-(5-(trifluoromethyl)-1,2,4-oxadiazol-3-yl)benzamide]
- gene expression of monocytes and lymphocytes ([1]; previous report): altered monocyte gene expression without affecting that of lymphocytes
- direct cytotoxicity to human monocytes, T or B cells ([1]; previously reported): not directly cytotoxic
- tumor burden, TMP195 added to the anti-PD-1 regimen (MMTV-PyMT tumors [2]): significantly greater reduction in tumor burden than TMP195 alone
- number of new macrophages in the tumor (tumor macrophages): increases
- number of pre-existing macrophages in the tumor (tumor macrophages): not and without affecting
- rate of tumor growth (MMTV-PyMT tumors [3]; total tumor burden 150-800 mm^3 at start, 13 days, 50 mg/kg TMP195 IP daily vs DMSO): significantly reduced
- tumor burden, single agent (MMTV-PyMT tumors [3]; total tumor burden 200-600 mm^3 at start, 50 mg/kg TMP195 IP daily vs vehicle): significant reduction
- cell viability, 6 mouse MMTV-PyMT cell lines [4]: not directly cytotoxic; also recorded: does not affect cell viability
- proportion of myeloid (CD11b+) and mature macrophages (Mac-2+, CD115+, F480+) in tumors (MMTV-PyMT tumors [5]; [9]): increased proportion
- proportion of other tumor infiltrating immune cells examined (MMTV-PyMT tumors [5]; [9]): without affecting
- MHCII+CD11bhi (MTM) cell population in tumors (MMTV-PyMT tumors [5]; 5 days of TMP195 treatment): increase
- proportion of pro-tumor TAMs (MHCII+CD11blo) (MMTV-PyMT tumors [5]; 5 days of TMP195 treatment): decrease; also recorded: significant reduction
- cytotoxic T lymphocytes in tumors (Granzyme B+ of CD45+CD3+CD8+ cells) (MMTV-PyMT tumors [5]; 5 days of TMP195 vs vehicle): significantly increases; also recorded: increase
- proportion of CD8+ T cells in the tumor (MMTV-PyMT tumors [5]; TMP195 treatment): does not change
- cell death in the tumor (cleaved Caspase 3, PARP cleavage) (MMTV-PyMT tumors [6]): increase in cell death
- proliferating tumor cells (Ki67) (MMTV-PyMT tumors [6]): significant decrease
- tumor burden in wild-type FVBN recipients ([7]; treated daily for 16 days, 50 mg/kg TMP195 vs DMSO): tumor burden was reduced
- transplant growth in T cell deficient athymic nude (Foxn1nu) recipient mice ([7]; treated for 20 days): failed to inhibit transplant growth
- anti-tumor efficacy with myeloid cell depletion (anti-CD11b) (MMTV-PyMT tumors [8]; TMP195 50 mg/kg IP daily plus anti-CD11b): abrogated the efficacy
- anti-tumor efficacy with macrophage depletion (anti-CSF-1) (MMTV-PyMT tumors [8]; TMP195 50 mg/kg IP daily plus anti-CSF-1): abrogated the efficacy
- CD34 staining in tumor sections with IFNγ neutralization (MMTV-PyMT tumors [8]; TMP195 plus anti-IFNγ antibody): failed to normalize CD34 staining
- autochthonous tumor burden with CD4+ cell depletion (MMTV-PyMT tumors [8]; TMP195 plus α-CD4, 6 days): reduced
- single agent efficacy with CD8+ cell depletion (MMTV-PyMT tumors [8]; TMP195 plus α-CD8): prevented the single agent efficacy
- Granzyme B+ CD8+ T cells in tumors with IFNγ neutralization (MMTV-PyMT tumors [8]; TMP195 plus α-IFNγ): disappearance
- reduction of tumor burden with IFNγ neutralization (MMTV-PyMT tumors [8]; TMP195 plus α-IFNγ, 6 days): loss of efficacy
